Results taken from the supplement of paper PMC10331698.
± gives the standard deviation of the averaged measurements.

Assays:
Test in all cases: level (log10 ratio to DMSO vehicle control); higher = higher biomarker level / cell amount than vehicle control
[1] = compound: C=C(C)C(=O)OCCC(F)(F)C(F)(F)C(F)(F)C(F)(F)C(F)(F)C(F)(F)F [6:2 Fluorotelomer methacrylate]; conditions: in DMSO
Experimental: (§1)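 BioMAP Diversity Plus panel of 12 human primary cell co-culture systems (3C, 4H, LPS, SAg, BT, BF4T, BE3C, CASM3C, HDF3CGF, KF3CT, MyoF, Mphg). Compounds were added 1 h before stimulation and left for 24 h (MyoF 48 h; BT 72 h for soluble read-outs or 6 d for IgG). Biomarkers were read by ELISA, cytotoxicity by SRB, PBMC viability and proliferation by Alamar Blue. Each well value was divided by the mean of 8 DMSO control wells on the same plate and log10 transformed; duplicate blinded samples were tested at 4 concentrations.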

[2] = compound: C=CC(=O)OCC(F)(F)C(F)(F)C(F)(F)COC(=O)C=C [1H,1H,5H,5H-Perfluoro-1,5-pentanediol diacrylate]; conditions: 6700 nM; in DMSO
Experimental: as §1

[3] = compound: COC(=O)C(F)(F)C(F)(F)OC(F)(C(F)(F)F)C(F)(F)OC(F)=C(F)F [Methyl perfluoro(3-(1-ethenyloxypropan-2-yloxy)propanoate)]; conditions: in DMSO
Experimental: as §1

[4] = compound: FC(F)(F)C(F)(F)C(F)(F)C(F)(F)C(F)(F)C(F)(F)C(F)(F)I [1-Iodopentadecafluoroheptane]; conditions: in DMSO
Experimental: as §1

[5] = compound: FC(F)(F)C(F)(F)C(F)(F)C(F)(F)C(F)(F)C(F)(F)CC1CO1 [3-(Perfluorohexyl)-1,2-epoxypropane]; conditions: in DMSO
Experimental: as §1

[6] = compound: FC(F)(F)C(F)(F)C(F)(F)CC1CO1 [1H,1H-Heptafluorobutyl epoxide]; conditions: in DMSO
Experimental: as §1

[7] = compound: FC(F)(F)C(F)(F)C(F)(F)CI [Heptafluorobutyl iodide]; conditions: in DMSO
Experimental: as §1

[8] = compound: FC(F)(F)C(F)(F)CNCC(F)(F)C(F)(F)F [Bis(1H,1H-perfluoropropyl)amine]; conditions: in DMSO
Experimental: as §1

[9] = compound: NC(=O)C(F)(F)C(F)(F)C(F)(F)C(F)(F)C(N)=O [Octafluoroadipamide]; conditions: in DMSO
Experimental: as §1

[10] = compound: NC(=O)C(F)(F)C(F)(F)C(F)(F)C(F)(F)F [Nonafluoropentanamide]; conditions: in DMSO
Experimental: as §1

[11] = compound: NC(=O)C(F)(F)C(F)(F)C(F)(F)C(F)F; conditions: in DMSO
Experimental: as §1

[12] = compound: NS(=O)(=O)C(F)(F)C(F)(F)C(F)(F)C(F)(F)C(F)(F)C(F)(F)F [Perfluorohexanesulfonamide]; conditions: in DMSO
Experimental: as §1

[13] = compound: O=C(O)C(F)(F)C(F)(F)C(F)(F)C(F)(F)C(F)(F)C(F)(F)C(F)(F)C(F)(F)C(F)(F)C(F)F [11-H-Perfluoroundecanoic acid]; conditions: in DMSO
Experimental: as §1

[14] = compound: O=C(O)C=CC(F)(C(F)(F)F)C(F)(F)F [3-(Perfluoroisopropyl)-2-propenoic acid]; conditions: in DMSO
Experimental: as §1

[15] = compound: O=S(=O)(Cl)C(F)(F)C(F)(F)C(F)(F)C(F)(F)C(F)(F)C(F)(F)C(F)(F)C(F)(F)F [Perfluoro-1-octanesulfonyl chloride]; conditions: in DMSO
Experimental: as §1

[16] = compound: O=S(=O)(F)C(F)(F)C(F)(F)C(F)(F)C(F)(F)C(F)(F)C(F)(F)C(F)(F)C(F)(F)F [Perfluorooctanesulfonyl fluoride]; conditions: in DMSO
Experimental: as §1

[17] = compound: O=S(=O)(O)C(F)(F)C(F)(F)C(F)(F)C(F)(F)C(F)(F)C(F)(F)C(F)(F)C(F)(F)C(F)(F)C(F)(F)F [Sodium perfluorodecanesulfonate]; conditions: in DMSO
Experimental: as §1

[18] = compound: O=S(=O)(O)CCC(F)(F)C(F)(F)C(F)(F)C(F)(F)C(F)(F)C(F)(F)F [6:2 Fluorotelomer sulfonic acid]; conditions: in DMSO
Experimental: as §1

[19] = compound: OCC(F)(F)C(F)(F)C(F)(F)CO [Hexafluoroamylene glycol]; conditions: in DMSO
Experimental: as §1

KF3CT:CD54/ICAM-1
level (log10) ([1]; 6700 nM): 0.006 ± 0.016
level (log10) ([1]; 20000 nM): -0.014 ± 0.031
level (log10) ([1]; 60000 nM): -0.0075 ± 0.005
level (log10) [2]: -0.076 ± 0.0042
level (log10) ([3]; 6700 nM): -0.025
level (log10) ([3]; 20000 nM): -0.008 ± 0.0071
level (log10) ([4]; 6700 nM): -0.015 ± 0.0085
level (log10) ([4]; 20000 nM): -0.018 ± 0.021
level (log10) ([5]; 6700 nM): 0.006 ± 0.0071
level (log10) ([5]; 20000 nM): 0.026
level (log10) ([5]; 60000 nM): 0.0085 ± 0.0092
level (log10) ([6]; 6700 nM): 0.003 ± 0.013
level (log10) ([6]; 20000 nM): -0.012 ± 0.0042
level (log10) ([6]; 60000 nM): -0.0105 ± 0.025
level (log10) ([7]; 6700 nM): -0.008 ± 0.0071
level (log10) ([7]; 20000 nM): -0.004 ± 0.0028
level (log10) ([7]; 60000 nM): -0.012 ± 0.0014
level (log10) ([8]; 6700 nM): -0.011 ± 0.011
level (log10) ([8]; 20000 nM): -0.008 ± 0.0085
level (log10) ([8]; 60000 nM): 0.012 ± 0.018
level (log10) ([9]; 6700 nM): -0.0015 ± 0.0021
level (log10) ([9]; 20000 nM): -0.003
level (log10) ([9]; 60000 nM): 0.0115 ± 0.022
level (log10) ([10]; 6700 nM): -0.018 ± 0.0071
level (log10) ([10]; 20000 nM): -0.016 ± 0.0071
level (log10) ([10]; 60000 nM): -0.025 ± 0.0028
level (log10) ([11]; 6700 nM): -0.0075 ± 0.011
level (log10) ([11]; 20000 nM): -0.0255 ± 0.005
level (log10) ([11]; 60000 nM): -0.008 ± 0.0014
level (log10) ([12]; 6700 nM): -0.0235 ± 0.015
level (log10) ([12]; 20000 nM): -0.019 ± 0.0085
level (log10) ([12]; 60000 nM): -0.0285 ± 0.025
level (log10) ([13]; 6700 nM): -0.0285 ± 0.039
level (log10) ([13]; 20000 nM): 0.0945 ± 0.0092
level (log10) ([14]; 6700 nM): 0.0075 ± 0.013
level (log10) ([14]; 20000 nM): 0.011 ± 0.018
level (log10) ([14]; 60000 nM): -0.0025 ± 0.029
level (log10) ([15]; 6700 nM): -0.0055 ± 0.0021
level (log10) ([15]; 20000 nM): -0.008 ± 0.0028
level (log10) ([15]; 60000 nM): 0.0325 ± 0.016
level (log10) ([16]; 6700 nM): 0.0055 ± 0.029
level (log10) ([16]; 20000 nM): 0.003 ± 0.0028
level (log10) ([16]; 60000 nM): 0.009 ± 0.0028
level (log10) ([17]; 1500 nM): 0.0035 ± 0.013
level (log10) ([17]; 4400 nM): 0.018 ± 0.023
level (log10) ([17]; 13000 nM): 0.08 ± 0.013
level (log10) ([17]; 40000 nM): 0.09
level (log10) ([18]; 6700 nM): -0.0095 ± 0.0064
level (log10) ([18]; 20000 nM): -0.0265 ± 0.0035
level (log10) ([18]; 60000 nM): -0.037 ± 0.0071
level (log10) ([19]; 6700 nM): 0.0035 ± 0.021
level (log10) ([19]; 20000 nM): -0.0155 ± 0.012
level (log10) ([19]; 60000 nM): -0.013 ± 0.0099

KF3CT:PAI-I
level (log10) ([1]; 6700 nM): -0.0465 ± 0.018
level (log10) ([1]; 20000 nM): -0.035 ± 0.016
level (log10) ([1]; 60000 nM): -0.0535 ± 0.03
level (log10) [2]: 0.014 ± 0.0028
level (log10) ([3]; 6700 nM): 0.0045 ± 0.019
level (log10) ([3]; 20000 nM): -0.0045 ± 0.012
level (log10) ([4]; 6700 nM): -0.0055 ± 0.04
level (log10) ([4]; 20000 nM): -0.0275 ± 0.028
level (log10) ([5]; 6700 nM): 0.0145 ± 0.032
level (log10) ([5]; 20000 nM): 0.019 ± 0.0014
level (log10) ([5]; 60000 nM): 0.0195 ± 0.0021
level (log10) ([6]; 6700 nM): -0.0145 ± 0.00071
level (log10) ([6]; 20000 nM): -0.0115 ± 0.018
level (log10) ([6]; 60000 nM): -0.014 ± 0.0085
level (log10) ([7]; 6700 nM): 0.0005 ± 0.0035
level (log10) ([7]; 20000 nM): -0.0185 ± 0.016
level (log10) ([7]; 60000 nM): -0.008 ± 0.0071
level (log10) ([8]; 6700 nM): -0.008 ± 0.03
level (log10) ([8]; 20000 nM): -0.0005 ± 0.005
level (log10) ([8]; 60000 nM): 0 ± 0.0042
level (log10) ([9]; 6700 nM): -0.0155 ± 0.012
level (log10) ([9]; 20000 nM): -0.0145 ± 0.025
level (log10) ([9]; 60000 nM): 0.004 ± 0.02
level (log10) ([10]; 6700 nM): -0.042 ± 0.0099
level (log10) ([10]; 20000 nM): -0.0205 ± 0.036
level (log10) ([10]; 60000 nM): -0.0375 ± 0.00071
level (log10) ([11]; 6700 nM): -0.005 ± 0.0042
level (log10) ([11]; 20000 nM): -0.0085 ± 0.0064
level (log10) ([11]; 60000 nM): -0.007 ± 0.02
level (log10) ([12]; 6700 nM): 0.0045 ± 0.016
level (log10) ([12]; 20000 nM): 0.0035 ± 0.021
level (log10) ([12]; 60000 nM): -0.0285 ± 0.022
level (log10) ([13]; 6700 nM): -0.0025 ± 0.03
level (log10) ([13]; 20000 nM): -0.12 ± 0.044
level (log10) ([14]; 6700 nM): 0.0045 ± 0.0092
level (log10) ([14]; 20000 nM): 0.023 ± 0.0085
level (log10) ([14]; 60000 nM): 0.0165 ± 0.0021
level (log10) ([15]; 6700 nM): -0.036 ± 0.014
level (log10) ([15]; 20000 nM): -0.116 ± 0.0057
level (log10) ([15]; 60000 nM): -0.2505 ± 0.0021
level (log10) ([16]; 6700 nM): -0.0005 ± 0.018
level (log10) ([16]; 20000 nM): -0.008 ± 0.0057
level (log10) ([16]; 60000 nM): 0.0025 ± 0.012
level (log10) ([17]; 1500 nM): -0.0085 ± 0.046
level (log10) ([17]; 4400 nM): -0.021 ± 0.013
level (log10) ([17]; 13000 nM): -0.0415 ± 0.0035
level (log10) ([17]; 40000 nM): -0.0715 ± 0.028
level (log10) ([18]; 6700 nM): 0.0025 ± 0.0021
level (log10) ([18]; 20000 nM): -0.012 ± 0.018
level (log10) ([18]; 60000 nM): -0.0135 ± 0.0092
level (log10) ([19]; 6700 nM): 0.002 ± 0.016
level (log10) ([19]; 20000 nM): -0.0055 ± 0.005
level (log10) ([19]; 60000 nM): 0.013
